Measurements from ChEMBL document CHEMBL4680298, “2-Aryl-3-(6-trifluoromethoxy)benzo[d]thiazole-based thiazolidinone hybrids as potential anti-infective agents: Synthesis, biological evaluation and molecular docking studies” (2021).
Values after ≈ are worked out from the molar mass of the structure shown.

Legend:
Salmonella typhimurium = assay: Anti-infective activity against Salmonella typhimurium ATCC 13311 assessed as reduction in bacterial growth by microdilution method; type: functional, Salmonella enterica subsp. enterica serovar Typhimurium; settings: Salmonella enterica
Pseudomonas aeruginosa [1] = assay: Anti-infective activity against Pseudomonas aeruginosa ATCC 27853 assessed as reduction in bacterial growth by microdilution method; type: functional
Escherichia coli [2] = assay: Anti-infective activity against Escherichia coli ATCC 35210 assessed as reduction in bacterial growth by microdilution method; type: functional
Pseudomonas aeruginosa [3] = assay: Anti-infective activity against Pseudomonas aeruginosa PAO1 assessed as reduction in bacterial growth by microdilution method; type: functional
Listeria monocytogenes = assay: Anti-infective activity against Listeria monocytogenes NCTC 7973 assessed as reduction in bacterial growth by microdilution method; type: functional
Staphylococcus aureus [4] = assay: Anti-infective activity against Staphylococcus aureus ATCC 6538 assessed as reduction in bacterial growth by microdilution method; type: functional
Staphylococcus aureus [5] = assay: Anti-infective activity against methicillin resistance Staphylococcus aureus assessed as reduction in bacterial growth by microdilution method; type: functional
Escherichia coli [6] = assay: Anti-infective activity against resistant Escherichia coli assessed as reduction in bacterial growth by microdilution method; type: functional

Question: For `O=C1CSC(c2ccc([N+](=O)[O-])cc2)N1c1nc2ccc(OC(F)(F)F)cc2s1` (racemic), which MBC (Salmonella typhimurium) is on record?
Answer: 250 µg/mL (≈ 566 µM)

Question: What about the MIC (Salmonella typhimurium) of the same compound?
Answer: 120 µg/mL (≈ 272 µM)

Question: And the MBC (Pseudomonas aeruginosa [1])?
Answer: 500 µg/mL (≈ 1130 µM)

Question: What about the MIC (Pseudomonas aeruginosa [1]) of the same compound?
Answer: 250 µg/mL (≈ 566 µM)

Question: And the MBC (Escherichia coli [2])?
Answer: 250 µg/mL (≈ 566 µM)

Question: What about the MIC (Escherichia coli [2]) of the same compound?
Answer: 120 µg/mL (≈ 272 µM)

Question: And the MBC (Pseudomonas aeruginosa [3])?
Answer: 250 µg/mL (≈ 566 µM)

Question: What about the MIC (Pseudomonas aeruginosa [3]) of the same compound?
Answer: 120 µg/mL (≈ 272 µM)

Question: What about the MBC (Listeria monocytogenes) of the same compound?
Answer: 500 µg/mL (≈ 1130 µM)

Question: What about the MIC (Listeria monocytogenes) of the same compound?
Answer: 250 µg/mL (≈ 566 µM)

Question: And the MBC (Staphylococcus aureus [4])?
Answer: 500 µg/mL (≈ 1130 µM)

Question: What about the MIC (Staphylococcus aureus [4]) of the same compound?
Answer: 250 µg/mL (≈ 566 µM)

Question: And the MBC (Staphylococcus aureus [5])?
Answer: 1000 µg/mL (≈ 2270 µM)

Question: What about the MIC (Staphylococcus aureus [5]) of the same compound?
Answer: 500 µg/mL (≈ 1130 µM)

Question: And the MBC (Escherichia coli [6])?
Answer: 500 µg/mL (≈ 1130 µM)

Question: What about the MIC (Escherichia coli [6]) of the same compound?
Answer: 250 µg/mL (≈ 566 µM)

Question: What does the source list for `COc1ccc(C2SCC(=O)N2c2nc3ccc(OC(F)(F)F)cc3s2)cc1` (racemic)?
Answer: MBC (Salmonella typhimurium): 500 µg/mL (≈ 1170 µM); MIC (Salmonella typhimurium): 250 µg/mL (≈ 586 µM); MBC (Pseudomonas aeruginosa [1]): 500 µg/mL (≈ 1170 µM); MIC (Pseudomonas aeruginosa [1]): 250 µg/mL (≈ 586 µM); MBC (Escherichia coli [2]): 500 µg/mL (≈ 1170 µM); MIC (Escherichia coli [2]): 250 µg/mL (≈ 586 µM); MBC (Pseudomonas aeruginosa [3]): 250 µg/mL (≈ 586 µM); MIC (Pseudomonas aeruginosa [3]): 120 µg/mL (≈ 281 µM); MBC (Listeria monocytogenes): 500 µg/mL (≈ 1170 µM); MIC (Listeria monocytogenes): 250 µg/mL (≈ 586 µM); MBC (Staphylococcus aureus [4]): 500 µg/mL (≈ 1170 µM); MIC (Staphylococcus aureus [4]): 250 µg/mL (≈ 586 µM); MBC (Staphylococcus aureus [5]): 1000 µg/mL (≈ 2340 µM); MIC (Staphylococcus aureus [5]): 500 µg/mL (≈ 1170 µM); MBC (Escherichia coli [6]): 500 µg/mL (≈ 1170 µM); MIC (Escherichia coli [6]): 250 µg/mL (≈ 586 µM)

Question: `O=C1CSC(c2c(F)cccc2Cl)N1c1nc2ccc(OC(F)(F)F)cc2s1` (racemic) was tested. Which MBC (Salmonella typhimurium) did it give?
Answer: 500 µg/mL (≈ 1110 µM)

Question: And the MIC (Salmonella typhimurium)?
Answer: 250 µg/mL (≈ 557 µM)

Question: What about the MBC (Pseudomonas aeruginosa [1]) of the same compound?
Answer: 1000 µg/mL (≈ 2230 µM)

Question: And the MIC (Pseudomonas aeruginosa [1])?
Answer: 500 µg/mL (≈ 1110 µM)

Question: What about the MBC (Escherichia coli [2]) of the same compound?
Answer: 500 µg/mL (≈ 1110 µM)

Question: And the MIC (Escherichia coli [2])?
Answer: 250 µg/mL (≈ 557 µM)

Question: And the MBC (Pseudomonas aeruginosa [3])?
Answer: 250 µg/mL (≈ 557 µM)

Question: What about the MIC (Pseudomonas aeruginosa [3]) of the same compound?
Answer: 120 µg/mL (≈ 267 µM)

Question: And the MBC (Listeria monocytogenes)?
Answer: 500 µg/mL (≈ 1110 µM)

Question: What about the MIC (Listeria monocytogenes) of the same compound?
Answer: 250 µg/mL (≈ 557 µM)

Question: And the MBC (Staphylococcus aureus [4])?
Answer: 500 µg/mL (≈ 1110 µM)

Question: And the MIC (Staphylococcus aureus [4])?
Answer: 250 µg/mL (≈ 557 µM)

Question: What about the MBC (Staphylococcus aureus [5]) of the same compound?
Answer: 1000 µg/mL (≈ 2230 µM)

Question: What about the MIC (Staphylococcus aureus [5]) of the same compound?
Answer: 500 µg/mL (≈ 1110 µM)

Question: What about the MBC (Escherichia coli [6]) of the same compound?
Answer: 500 µg/mL (≈ 1110 µM)

Question: And the MIC (Escherichia coli [6])?
Answer: 250 µg/mL (≈ 557 µM)

Question: How did the MBC (Salmonella typhimurium) turn out when `CN[C@@H]1[C@H](O[C@H]2[C@H](O[C@H]3[C@H](O)[C@@H](O)[C@H](N=C(N)N)[C@@H](O)[C@@H]3N=C(N)N)O[C@@H](C)[C@]2(O)C=O)O[C@@H](CO)[C@H](O)[C@H]1O` [STREPTOMYCIN] was run?
Answer: 200 µg/mL (≈ 344 µM)

Question: And the MIC (Salmonella typhimurium)?
Answer: 100 µg/mL (≈ 172 µM)

Question: What about the MBC (Pseudomonas aeruginosa [1]) of the same compound?
Answer: 200 µg/mL (≈ 344 µM)

Question: And the MIC (Pseudomonas aeruginosa [1])?
Answer: 100 µg/mL (≈ 172 µM)

Question: What about the MBC (Escherichia coli [2]) of the same compound?
Answer: 200 µg/mL (≈ 344 µM)

Question: And the MIC (Escherichia coli [2])?
Answer: 100 µg/mL (≈ 172 µM)

Question: What about the MBC (Pseudomonas aeruginosa [3]) of the same compound?
Answer: 100 µg/mL (≈ 172 µM)

Question: What about the MIC (Pseudomonas aeruginosa [3]) of the same compound?
Answer: 50 µg/mL (≈ 86 µM)

Question: And the MBC (Listeria monocytogenes)?
Answer: 300 µg/mL (≈ 516 µM)

Question: And the MIC (Listeria monocytogenes)?
Answer: 150 µg/mL (≈ 258 µM)

Question: And the MBC (Staphylococcus aureus [4])?
Answer: 300 µg/mL (≈ 516 µM)

Question: And the MIC (Staphylococcus aureus [4])?
Answer: 150 µg/mL (≈ 258 µM)

Question: What about the MIC (Staphylococcus aureus [5]) of the same compound?
Answer: 100 µg/mL (≈ 172 µM)

Question: And the MBC (Escherichia coli [6])?
Answer: 200 µg/mL (≈ 344 µM)

Question: What about the MIC (Escherichia coli [6]) of the same compound?
Answer: 100 µg/mL (≈ 172 µM)

Question: Which results are given for `O=C1CSC(c2c(F)cccc2F)N1c1nc2ccc(OC(F)(F)F)cc2s1` (racemic)?
Answer: MBC (Salmonella typhimurium): 250 µg/mL (≈ 578 µM); MIC (Salmonella typhimurium): 120 µg/mL (≈ 278 µM); MBC (Pseudomonas aeruginosa [1]): 500 µg/mL (≈ 1160 µM); MIC (Pseudomonas aeruginosa [1]): 250 µg/mL (≈ 578 µM); MBC (Escherichia coli [2]): 250 µg/mL (≈ 578 µM); MIC (Escherichia coli [2]): 120 µg/mL (≈ 278 µM); MBC (Pseudomonas aeruginosa [3]): 500 µg/mL (≈ 1160 µM); MIC (Pseudomonas aeruginosa [3]): 300 µg/mL (≈ 694 µM); MBC (Listeria monocytogenes): > 1000 µg/mL; MIC (Listeria monocytogenes): > 1000 µg/mL; MBC (Staphylococcus aureus [4]): > 1000 µg/mL; MIC (Staphylococcus aureus [4]): > 1000 µg/mL; MBC (Staphylococcus aureus [5]): 1000 µg/mL (≈ 2310 µM); MIC (Staphylococcus aureus [5]): 250 µg/mL (≈ 578 µM); MBC (Escherichia coli [6]): 500 µg/mL (≈ 1160 µM); MIC (Escherichia coli [6]): 250 µg/mL (≈ 578 µM)

Question: Which MBC (Salmonella typhimurium) does the source give for `O=C1CSC(c2cccc(Cl)c2Cl)N1c1nc2ccc(OC(F)(F)F)cc2s1` (racemic) here?
Answer: 250 µg/mL (≈ 537 µM)

Question: What about the MIC (Salmonella typhimurium) of the same compound?
Answer: 150 µg/mL (≈ 322 µM)

Question: What about the MBC (Pseudomonas aeruginosa [1]) of the same compound?
Answer: 500 µg/mL (≈ 1070 µM)

Question: What about the MIC (Pseudomonas aeruginosa [1]) of the same compound?
Answer: 250 µg/mL (≈ 537 µM)

Question: And the MBC (Escherichia coli [2])?
Answer: 250 µg/mL (≈ 537 µM)

Question: And the MIC (Escherichia coli [2])?
Answer: 150 µg/mL (≈ 322 µM)

Question: And the MBC (Pseudomonas aeruginosa [3])?
Answer: 120 µg/mL (≈ 258 µM)

Question: What about the MIC (Pseudomonas aeruginosa [3]) of the same compound?
Answer: 120 µg/mL (≈ 258 µM)

Question: And the MBC (Listeria monocytogenes)?
Answer: 250 µg/mL (≈ 537 µM)

Question: What about the MIC (Listeria monocytogenes) of the same compound?
Answer: 100 µg/mL (≈ 215 µM)

Question: What about the MBC (Staphylococcus aureus [4]) of the same compound?
Answer: 250 µg/mL (≈ 537 µM)

Question: What about the MIC (Staphylococcus aureus [4]) of the same compound?
Answer: 100 µg/mL (≈ 215 µM)

Question: What about the MBC (Staphylococcus aureus [5]) of the same compound?
Answer: 1000 µg/mL (≈ 2150 µM)

Question: What about the MIC (Staphylococcus aureus [5]) of the same compound?
Answer: 500 µg/mL (≈ 1070 µM)

Question: And the MBC (Escherichia coli [6])?
Answer: 250 µg/mL (≈ 537 µM)

Question: And the MIC (Escherichia coli [6])?
Answer: 120 µg/mL (≈ 258 µM)
